For five compounds, IC50 results are on record in BindingDB's records for patent US10919852 (Chemocentryx, 2021).

Molecules are shown by their SMILES.

A word on the IC50: it is the concentration that inhibits the measured activity by half.

Programmed cell death 1 ligand 1, sequence (Q9NZQ7 whole entry): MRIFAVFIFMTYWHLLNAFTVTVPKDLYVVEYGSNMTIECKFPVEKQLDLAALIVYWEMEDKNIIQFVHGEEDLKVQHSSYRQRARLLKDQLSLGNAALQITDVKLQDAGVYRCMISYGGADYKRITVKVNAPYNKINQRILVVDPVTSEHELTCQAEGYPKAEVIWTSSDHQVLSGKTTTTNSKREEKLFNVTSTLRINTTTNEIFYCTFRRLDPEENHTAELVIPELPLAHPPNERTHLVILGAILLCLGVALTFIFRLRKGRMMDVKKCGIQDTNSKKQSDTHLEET

The experiment addresses Programmed cell death 1 ligand 1 (Homo sapiens, UniProt Q9NZQ7). The experiment can be described thus: Enzyme-Linked Immunosorbent Assay ELISA. As to the method:
96 Well plates were coated with […] of human PD-L1 (obtained from R&D) in PBS overnight at 4° C. The wells were then blocked with 2% BSA in PBS (W/V) with 0.05% TWEEN-20 for 1 hour at 37° C. The plates were washed 3 times with PBS/0.05% TWEEN-20 and the compounds were serial diluted (1:5) in dilution medium and added to the ELISA plates. Human PD-1 and biotin 0.3 μg/mL (ACRO Biosystems) were added and incubated for 1 hour at 37° C. then washed 3 times with PBS/0.05% TWEEN-20. A second block was performed with 2% BSA in PBS (W/V)/0.05% TWEEN-20 for 10 min at 37° C. and was washed 3 times with PBS/0.05% TWEEN-20. Streptavidin-HRP was added for 1 hour at 37° C. then washed 3 times with PBS/0.05% TWEEN-20. TMB substrate was added and reacted for 20 min at 37° C. A stop solution (2 N aqueous H2SO4) was added. The absorbance was read at 450 nm using a micro-plate spectrophotometer.
(ELISA stands for enzyme-linked immunosorbent assay.)
Regarding `CCOc1cc(O[C@H]2CCc3c(-c4cccc(OCCCN5CCC5(C)C)c4C)cccc32)c(Cl)cc1CN1CC[C@H](C(=O)O)C1` [US10919852, Compound TABLE 1.412], the IC50 result was “in the range around 0.253 µM”.

Turning to `Cc1c(OCCCN2CC[C@H](F)C[C@@H]2C)cccc1-c1cccc2c1CC[C@@H]2Oc1cc(OCc2cc(C#N)cc(C#N)c2)c(CN[C@H]2CCC(=O)NC2)cc1Cl` [US10919852, Compound TABLE 1.341], the half-inhibitory concentration (IC50) entry is “in the range around 0.253 µM”.

For `Cc1c(OCCCN2CCC(C)(F)CC2)cccc1-c1cccc2c1CC[C@@H]2Oc1cc(OCc2cc(C#N)cc(C#N)c2)c(CN[C@@H]2CCC[C@H]2O)cc1Cl` [US10919852, Compound TABLE 1.294], the IC50 result was “in the range around 0.253 µM”. To `CCOc1cc(O[C@H]2CCc3c(-c4cccc(OCCCN5[C@H](C)CC[C@H]5C)c4C)cccc32)c(Cl)cc1CN1CCCC[C@H]1C(=O)O` [US10919852, Compound TABLE 1.381] belongs “in the range around 0.253 µM”; to `CC1(F)CCN(CCCOc2cccc(-c3cccc4c3CC[C@@H]4Oc3cc(OCc4cncc(C#N)c4)c(CN[C@H]4CCC(=O)NC4)cc3Cl)c2Cl)CC1` [US10919852, Compound TABLE 1.280], “in the range around 0.253 µM”.
